{"source": "patent US20100234277A1", "about": "“COADMINISTRATION OF ALPHA-FETOPROTEIN AND A DISEASE MODIFYING ANTI-RHEUMATIC DRUG FOR TREATING INFLAMMATORY ARTHRITIC DISEASE” (priority 2006, published 2010)", "origin": "cited, not measured here", "conditions": "in vivo"}
{"smiles": "CN(Cc1cnc2nc(N)nc(N)c2n1)c1ccc(C(=O)N[C@@H](CCC(=O)O)C(=O)O)cc1", "note": "[methotrexate, N-[4-[[(2,4-diamino-6-pteridinyl)methyl]methylamino]benzoyl]-L-glutamic acid]", "values": [{"measurement": "individuals with rheumatoid arthritis (RA) that respond favorably to treatment", "result": "Approximately 70%"}]}
